# From paper PMC11943294, “Identification of Key Active Constituents in Eucommia ulmoides Oliv. Leaves Against Parkinson’s Disease and the Alleviative Effects via 4E-BP1 Up-Regulation” (International Journal of Molecular Sciences, 2025)
# Experiments:
# [1] = target: T1, 4E-BP1 (Homo sapiens, UniProt Q13541); test: SPR (BIAcore T200, CM5 chip, immobilized 4E-BP1, […] Langmuir); settings: 25 °C; 0-125 μM analyte; unreliable (discussion b43 prints another KD, 3.75 × 10^−5 M, and a negative deviation of the binding curve)
# T1 construct: gene EIF4EBP1; amine-coupled to CM5 chip; PDB 2JGB used for docking only
# T1 sequence (Q13541 2-118): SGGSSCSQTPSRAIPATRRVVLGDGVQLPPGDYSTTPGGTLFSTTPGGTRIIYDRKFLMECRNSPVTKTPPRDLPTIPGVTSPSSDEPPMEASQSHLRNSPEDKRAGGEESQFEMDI
# [2] = target: T1, 4E-BP1; test: as above; format: binding
KD [1] [µM],Kd [2] [µM],SMILES
4.469,–,O=C(/C=C/c1ccc(O)c(O)c1)O[C@H]1[C@H](O)C[C@](O)(C(=O)O)C[C@H]1O [cryptochlorogenic acid]
–,55.6,O=C(/C=C/c1ccc(O)c(O)c1)O[C@@H]1C[C@](O)(C(=O)O)C[C@@H](O)[C@H]1O [chlorogenic acid]
–,12.9,O=C(O)/C=C/c1ccc(O)c(O)c1 [caffeic acid]
